Assay results as given in ChEMBL document CHEMBL4359925, “Rational discovery of a highly novel and selective mTOR inhibitor” (Bioorg Med Chem Lett, 2019).

How the values were obtained:
[1] = target: Phosphatidylinositol 4,5-bisphosphate 3-kinase catalytic subunit alpha isoform (Homo sapiens, UniProt P42336); experiment: Inhibition of PI3K alpha (unknown origin)
[2] = target: Serine/threonine-protein kinase mTOR (Homo sapiens, UniProt P42345); experiment: Inhibition of human mTOR measured after 30 mins in presence of ATP by Lanthascreen TR-FRET assay

Sequence of Phosphatidylinositol 4,5-bisphosphate 3-kinase catalytic subunit alpha isoform (P42336 whole entry, canonical isoform): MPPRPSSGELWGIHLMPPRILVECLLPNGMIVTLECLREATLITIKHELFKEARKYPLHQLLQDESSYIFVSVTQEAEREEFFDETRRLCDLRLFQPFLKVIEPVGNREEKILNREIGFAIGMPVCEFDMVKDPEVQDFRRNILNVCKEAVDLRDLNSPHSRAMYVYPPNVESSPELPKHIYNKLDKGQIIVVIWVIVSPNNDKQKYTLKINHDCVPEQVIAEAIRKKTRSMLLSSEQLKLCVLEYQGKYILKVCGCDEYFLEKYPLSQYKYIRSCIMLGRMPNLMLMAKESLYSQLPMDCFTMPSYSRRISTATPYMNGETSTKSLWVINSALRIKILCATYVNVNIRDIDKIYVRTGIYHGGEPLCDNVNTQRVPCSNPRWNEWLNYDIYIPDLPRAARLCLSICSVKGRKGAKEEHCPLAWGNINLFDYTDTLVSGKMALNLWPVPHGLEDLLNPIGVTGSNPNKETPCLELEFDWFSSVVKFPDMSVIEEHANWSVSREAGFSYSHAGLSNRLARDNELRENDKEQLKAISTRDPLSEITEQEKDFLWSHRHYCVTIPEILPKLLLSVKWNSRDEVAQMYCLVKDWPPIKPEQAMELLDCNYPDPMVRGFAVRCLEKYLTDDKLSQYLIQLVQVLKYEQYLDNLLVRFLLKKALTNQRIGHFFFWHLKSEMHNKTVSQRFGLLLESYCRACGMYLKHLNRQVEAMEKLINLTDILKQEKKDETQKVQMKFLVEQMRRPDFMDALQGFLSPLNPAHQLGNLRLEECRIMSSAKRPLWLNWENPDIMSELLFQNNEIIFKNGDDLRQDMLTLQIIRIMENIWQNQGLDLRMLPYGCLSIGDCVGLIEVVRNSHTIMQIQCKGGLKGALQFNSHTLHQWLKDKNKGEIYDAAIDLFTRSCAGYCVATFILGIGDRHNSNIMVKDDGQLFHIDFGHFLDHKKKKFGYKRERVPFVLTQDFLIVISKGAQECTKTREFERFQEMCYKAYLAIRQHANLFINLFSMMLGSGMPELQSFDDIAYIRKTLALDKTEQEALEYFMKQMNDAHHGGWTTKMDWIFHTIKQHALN

IC50 [1]: 5.01 µM
IC50 [2]: 5.01 µM
SMILES: CNC(=O)Nc1ccc(-c2nc(C)c3nc4n(c3n2)CCOC4)cc1
